Reference: ChEMBL document CHEMBL4837181 (Eur J Med Chem, 2020)

Experiments:
[1] = Cmax in mouse at 250 mg/kg administered bid; assay type: ADME, organism-based; set-up: dose 250 mg/kg; conditions: in vivo
[2] = Tmax in male cynomolgus monkey at 75 mg/kg, po measured on day 1; assay type: ADME, organism-based, Macaca fascicularis; conditions: in vivo
[3] = AUC (0 to 24 hrs) in female cynomolgus monkey at 15 mg/kg, iv measured on day 1; assay type: ADME, organism-based, Macaca fascicularis; set-up: time < 24 hr, route intravenous, dose 15 mg/kg; conditions: in vivo
[4] = Apparent oral clearance in female cynomolgus monkey at 150 mg/kg, po BID measured on day 8; assay type: ADME, organism-based, Macaca fascicularis; conditions: in vivo
[5] = Half life in female cynomolgus monkey at 225 mg/kg, po measured on day 1; assay type: ADME, organism-based, Macaca fascicularis; conditions: in vivo
[6] = Half life in mouse at 20 to 900 mg/kg, po; assay type: ADME, organism-based; conditions: in vivo, dose 20-900 mg/kg
[7] = Change in normalised AUC (infinity) in rat at 50 mg/kg, po measured upto 72 hrs by LC-MS/MS analysis; assay type: ADME, organism-based; conditions: in vivo
[8] = Chemical stability of compound in saline assessed as compound remaining at 5 uM measured after 24 hrs by LC-MS/MS analysis; assay type: physicochemical; conditions: read-out: Stabilty
[9] = Chemical stability of compound in 0.1 N aqueous HCl buffer assessed as compound remaining at pH 1 at 5 uM measured after 24 hrs by LC-MS/MS analysis; assay type: physicochemical; conditions: pH 1, 24 h
[10] = Chemical stability of compound in simulated intestinal fluid assessed as compound remaining at 5 uM measured after 3 hrs by LC-MS/MS analysis; assay type: ADME, physicochemical; conditions: read-out: Stabilty
[11] = Stability in human plasma assessed as parent compound remaining measured after 6 hrs by LC-MS/MS analysis; assay type: ADME, cell-free; conditions: read-out: Stabilty
[12] = biological target: CYP3A4 (Homo sapiens, UniProt P08684); experiment: Time dependent inhibition of CYP3A4 in human hepatocytes assessed as fold shift relative to control; assay type: ADME, cell-based, Hepatocyte; conditions: read-out: FC
CYP3A4, sequence (P08684 whole entry): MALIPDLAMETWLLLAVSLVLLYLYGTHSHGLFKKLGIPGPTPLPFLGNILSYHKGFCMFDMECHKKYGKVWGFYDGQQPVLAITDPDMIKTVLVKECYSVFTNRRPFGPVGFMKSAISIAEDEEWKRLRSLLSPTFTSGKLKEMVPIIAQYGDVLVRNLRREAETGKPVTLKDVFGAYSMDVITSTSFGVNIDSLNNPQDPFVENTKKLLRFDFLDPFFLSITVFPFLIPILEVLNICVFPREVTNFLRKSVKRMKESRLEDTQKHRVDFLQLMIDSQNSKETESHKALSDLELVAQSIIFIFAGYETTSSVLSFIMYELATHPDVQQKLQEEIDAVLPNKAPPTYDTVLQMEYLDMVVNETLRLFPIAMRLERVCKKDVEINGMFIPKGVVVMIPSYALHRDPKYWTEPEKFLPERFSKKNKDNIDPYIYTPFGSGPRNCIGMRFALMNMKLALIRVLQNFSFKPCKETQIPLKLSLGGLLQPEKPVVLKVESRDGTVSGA

[13] = biological target: Cytochrome P450 2D6 (Homo sapiens, UniProt P10635); experiment: Inhibition of CYP2D6 in human hepatocytes; assay type: ADME, cell-based, Hepatocyte
Cytochrome P450 2D6, sequence (P10635 whole entry): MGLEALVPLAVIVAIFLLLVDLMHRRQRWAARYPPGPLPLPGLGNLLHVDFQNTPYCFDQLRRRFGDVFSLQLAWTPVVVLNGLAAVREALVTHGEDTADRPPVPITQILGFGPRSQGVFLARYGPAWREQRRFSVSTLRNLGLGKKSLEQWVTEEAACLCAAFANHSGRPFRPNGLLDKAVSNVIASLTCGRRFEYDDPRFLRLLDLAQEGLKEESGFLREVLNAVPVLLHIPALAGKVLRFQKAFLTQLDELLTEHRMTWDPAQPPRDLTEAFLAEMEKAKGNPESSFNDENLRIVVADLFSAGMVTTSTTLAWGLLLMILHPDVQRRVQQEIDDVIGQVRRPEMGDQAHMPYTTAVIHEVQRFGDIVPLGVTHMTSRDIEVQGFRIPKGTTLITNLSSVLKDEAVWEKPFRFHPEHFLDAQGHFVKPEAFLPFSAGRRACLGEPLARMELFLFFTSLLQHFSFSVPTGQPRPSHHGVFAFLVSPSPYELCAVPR

[14] = biological target: T1, Solute carrier organic anion transporter family member 1B3 (Homo sapiens, UniProt Q9NPD5); experiment: Inhibition of OATP1B3 (unknown origin) expressed in HEK293 cells; assay type: cell-based
T1 sequence (Q9NPD5 whole entry): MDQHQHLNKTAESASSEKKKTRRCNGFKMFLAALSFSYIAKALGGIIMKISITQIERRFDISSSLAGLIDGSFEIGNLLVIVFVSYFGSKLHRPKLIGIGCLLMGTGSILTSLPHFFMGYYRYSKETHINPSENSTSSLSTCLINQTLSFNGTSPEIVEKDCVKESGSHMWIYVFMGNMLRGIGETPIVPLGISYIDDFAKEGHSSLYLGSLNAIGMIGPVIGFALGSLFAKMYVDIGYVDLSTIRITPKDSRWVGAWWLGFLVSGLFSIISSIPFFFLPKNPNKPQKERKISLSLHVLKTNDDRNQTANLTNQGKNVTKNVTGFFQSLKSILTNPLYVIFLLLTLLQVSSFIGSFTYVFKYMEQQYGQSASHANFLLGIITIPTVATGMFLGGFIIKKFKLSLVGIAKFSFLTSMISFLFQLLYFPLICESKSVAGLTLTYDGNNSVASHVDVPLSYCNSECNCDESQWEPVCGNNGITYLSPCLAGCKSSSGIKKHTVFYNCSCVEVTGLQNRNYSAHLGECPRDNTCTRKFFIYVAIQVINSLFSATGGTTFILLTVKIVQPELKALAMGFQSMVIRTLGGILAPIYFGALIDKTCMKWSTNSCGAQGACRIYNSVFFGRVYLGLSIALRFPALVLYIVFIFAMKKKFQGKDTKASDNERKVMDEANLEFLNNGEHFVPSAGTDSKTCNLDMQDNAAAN

[15] = biological target: T2, Solute carrier family 22 member 6 (Homo sapiens, UniProt Q4U2R8); experiment: Inhibition of OAT1 (unknown origin) expressed in HEK293 cells; assay type: cell-based
T2 sequence (Q4U2R8 whole entry): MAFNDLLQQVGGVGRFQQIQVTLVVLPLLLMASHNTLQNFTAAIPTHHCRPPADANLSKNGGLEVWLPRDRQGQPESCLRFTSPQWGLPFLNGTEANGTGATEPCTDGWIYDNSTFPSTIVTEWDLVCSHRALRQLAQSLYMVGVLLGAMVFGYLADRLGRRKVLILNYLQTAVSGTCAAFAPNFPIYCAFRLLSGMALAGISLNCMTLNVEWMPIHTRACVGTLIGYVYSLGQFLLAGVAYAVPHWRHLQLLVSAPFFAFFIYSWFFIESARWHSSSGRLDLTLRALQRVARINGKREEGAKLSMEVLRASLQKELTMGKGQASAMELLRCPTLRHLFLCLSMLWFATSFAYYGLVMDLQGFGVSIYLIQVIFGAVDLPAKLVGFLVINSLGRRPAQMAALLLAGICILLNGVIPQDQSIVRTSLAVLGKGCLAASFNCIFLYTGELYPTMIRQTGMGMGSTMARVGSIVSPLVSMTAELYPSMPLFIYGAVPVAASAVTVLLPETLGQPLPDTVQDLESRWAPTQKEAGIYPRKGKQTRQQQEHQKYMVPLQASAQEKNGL

[16] = Apparent oral clearance in male cynomolgus monkey at 75 mg/kg, po BID measured on day 8; assay type: ADME, organism-based, Macaca fascicularis; conditions: in vivo
[17] = AUC (0 to 24 hrs) in male cynomolgus monkey at 75 mg/kg, po BID measured on day 8; assay type: ADME, organism-based, Macaca fascicularis; set-up: time < 24 hr, route oral, dose 75 mg/kg; conditions: in vivo
[18] = Half life in male cynomolgus monkey at 75 mg/kg, po BID measured on day 8; assay type: ADME, organism-based, Macaca fascicularis; conditions: in vivo
[19] = Drug metabolism in cynomolgus monkey assessed as formation of M9 metabolite at 75 to 675 mg/kg, po administered as single dose; assay type: ADME, organism-based, Macaca fascicularis; conditions: in vivo, dose 75-675 mg/kg
[20] = Drug metabolism in cynomolgus monkey assessed as indoximod formation by measuring indoximod Tmax at 75 to 375 mg/kg, po BID; assay type: ADME, organism-based, Macaca fascicularis; conditions: in vivo, dose 75-375 mg/kg
[21] = Drug metabolism in mouse assessed as formation of M9 metabolite at 20 to 900 mg/kg; assay type: ADME, organism-based; conditions: in vivo, dose 20-900 mg/kg
[22] = Drug metabolism in rats assessed as formation of M9 metabolite at 20 to 900 mg/kg; assay type: ADME, organism-based; conditions: rat, in vivo; dose 20-900 mg/kg
[23] = Drug metabolism in rat assessed as indoximod formation by measuring indoximod Tmax at 20 to 900 mg/kg; assay type: ADME, organism-based; conditions: in vivo, dose 20-900 mg/kg
[24] = Drug metabolism in cynomolgus monkey assessed as ratio of indoximod to parent compound at 15 mg/kg, iv administered as single dose; assay type: ADME, organism-based, Macaca fascicularis; conditions: in vivo
[25] = Oral bioavailability in male cynomolgus monkey at 275 micromol/kg; assay type: ADME, organism-based, Macaca fascicularis; conditions: in vivo, at 275 µmol/kg
[26] = Protein binding in cynomolgus monkey plasma; assay type: ADME, cell-free, Macaca fascicularis; conditions: read-out: PPB
[27] = Protein binding in human plasma; assay type: ADME, cell-free; conditions: read-out: PPB
[28] = Cmax in male rat at 150 mg/kg, po BID measured on day 28; assay type: ADME, organism-based; set-up: route oral, dose 150 mg/kg; conditions: in vivo
[29] = Toxicity in rat assessed as mortality at 150 to 180 mg/kg, po; assay type: organism-based; conditions: in vivo, dose 150-180 mg/kg
[30] = Toxicity in rat assessed as labored breathing at 150 to 180 mg/kg, po; assay type: organism-based; conditions: in vivo, dose 150-180 mg/kg
[31] = Toxicity in rat assessed as change in behavioral parameter; conditions: in vivo
[32] = Toxicity in monkey assessed as change in behavioral parameter; set-up: species or system Macaca mulatta; conditions: rhesus monkey, in vivo

Compound: Cn1cc(C[C@@H](N)C(=O)O)c2ccccc21 [INDOXIMOD]
- Cmax [1]: 50 µM
- Tmax [2]: 2 h
- AUC(0-t) at 24 h [3]: 70.6 µM·h
- CL/F [4]: 17.6 mL/min/kg
- half-life [5]: 3.8 h
- half-life [6]: 2.2 h
- Activity [7]: 0%

Compound: CCOC(=O)[C@@H](Cc1cn(C)c2ccccc12)NC(=O)[C@@H](N)CC(C)C.Cl
- remaining at 24 h, 5 µM [8]: 87%
- Stabilty [9]: 87%
- remaining at 3 h, 5 µM [10]: 91%
- remaining at 6 h [11]: 53%
- IC50 shift [12]: 7
- IC50 [13]: 19 µM
- IC50 [14]: > 50 µM
- IC50 [15]: > 50 µM
- CL/F [16]: 25.6 mL/min/kg
- AUC at 24 h [17]: 177 µM·h
- half-life [18]: 1.8 h
- Drug metabolism [19]: Metabolite_Detected
- Tmax [20]: 1 h
- Drug metabolism [21]: Metabolite_Detected
- Drug metabolism [22]: Metabolite_Detected
- Tmax [23]: 1 h
- Ratio [24]: 690
- F [25]: 10%
- fraction unbound [26]: 0.5
- fraction unbound [27]: 0.5
- Cmax [28]: 169 µM
- Activity [29]: Toxic
- Activity [30]: Toxic
- Activity [31]: Non-Toxic
- Activity [32]: Non-Toxic
